Experimental data as given in patent US20150299143A1, “SUBSTITUTED TRIAZOLE AND IMIDAZOLE COMPOUNDS” (HOFFMANN-LA ROCHE INC., priority 2012, published 2015).

Experiments:
[1] = target: T1, β 5i (chymotrypsin-like activity) (Homo sapiens, UniProt P20618+P28062); test: Cell-Based Proteasome subunit activity/selectivity assay, β5i, substrate (ANW)2Rh110; conditions: Ramos cells; substrate (ANW)2Rh110 (β5i); highest concentration tested 20 μM; read-out: Ic50:ramos:ac-(anw)2-r110
T1 construct: protease activity associated with the proteasome complex in cultured cells; endogenous in cells; host or cells: Ramos cells
Text: (§1) Cell-Based Proteasome Activity/Selectivity Assay
(§2) The Cell-Based Proteasome subunit activity/selectivity assay was a panel of 5 fluorogenic assays that independently measured the activity of β5c or β 5i (chymotrypsin-like activity), β 2c/2i (trypsin-like), and β 1c or β 1i (caspase-like) protease activity associated with the proteasome complex in cultured cells. Specifically, the following substrates were used for respective subunit activities: β 1i (PAL)2Rh110, β 1c: (LLE)2 Rh110, β 2c/2i: (KQL)2Rh110, β 5c: (WLA)2Rh110, β 5i: (ANW)2Rh110. The following procedure was followed:
(§3) Added 0.5 μl of 100× 4-fold serial diluted test compounds or DMSO to each well. Highest concentration of compound tested was 20 μM, thus compound serial dilution started from […]. Incubated for 30 minutes at 37° C. Then equilibrated at room temperature for 15 minutes. […] Shaked for one minute @ 700 rpm. Incubated for 120 min at room temperature. Then read the plates with an Envision multilabel plate reader (PerkinElmer) with 500 nm excitation/519 nm emission.

[2] = target: T2, β5c (chymotrypsin-like activity) (Homo sapiens, UniProt P20618+P28074); test: Cell-Based Proteasome subunit activity/selectivity assay, β5c, substrate (WLA)2Rh110; conditions: Ramos cells; substrate (WLA)2Rh110 (β5c); highest concentration tested 20 μM; read-out: Ic50:ramos:rh110-(wla)2
T2 construct: protease activity associated with the proteasome complex in cultured cells; endogenous in cells; host or cells: Ramos cells
Text: as §1, §2, §3

β 2c/2i (trypsin-like) = test: Cell-Based Proteasome subunit activity/selectivity assay, β2c/2i, substrate (KQL)2Rh110; conditions: Ramos cells; substrate (KQL)2Rh110 (β2c/2i); highest concentration tested 20 μM
Text: as §1, §2, §3

β 1i (caspase-like) = target: T3, β 1i (caspase-like) (Homo sapiens, UniProt P28065+P40306); test: Cell-Based Proteasome subunit activity/selectivity assay, β1i, substrate (PAL)2Rh110; conditions: Ramos cells; substrate (PAL)2Rh110 (β1i); highest concentration tested 20 μM; read-out: Ic50:ramos:rh110-(pal)2
T3 construct: protease activity associated with the proteasome complex in cultured cells; endogenous in cells; host or cells: Ramos cells
Text: as §1, §2, §3

β 1c (caspase-like) = target: T4, β 1c (caspase-like) (Homo sapiens, UniProt P28072+Q99436); test: Cell-Based Proteasome subunit activity/selectivity assay, β1c, substrate (LLE)2Rh110; conditions: Ramos cells; substrate (LLE)2Rh110 (β1c); highest concentration tested 20 μM; read-out: Ic50:ramos:rh110-(lle)2
T4 construct: protease activity associated with the proteasome complex in cultured cells; endogenous in cells; host or cells: Ramos cells
Text: as §1, §2, §3

| Compound | IC50 [1] [µM] | IC50 [2] [µM] | IC50 (β 2c/2i (trypsin-like)) [µM] | IC50 (β 1i (caspase-like)) [µM] | IC50 (β 1c (caspase-like)) [µM] |
| --- | --- | --- | --- | --- | --- |
| CCc1ccc(C(C#N)NC(=O)c2cn(CCNC(=O)CC3(O)Cc4ccccc4C3)nn2)cc1 (centres unmarked) [Example 22, 1-{2-[2-(2-Hydroxy-indan-2-yl)-acetylamino]-ethyl}-1H-[1,2,3]triazole-4-carboxylic acid [cyano-(4-ethyl-phenyl)-methyl]-amide] | 9.95 | ≥ 20 | ≥ 20 | ≥ 20 | ≥ 20 |
| CCc1ccc(C(C#N)NC(=O)c2cn(CCNC(=O)c3cncc(Br)c3OC)nn2)cc1 (centres unmarked) [Example 30, 5-Bromo-N-[2-(4-{[cyano-(4-ethyl-phenyl)-methyl]-carbamoyl}-[1,2,3]triazol-1-yl)-ethyl]-4-methoxy-nicotinamide] | 1.02 | 6.78 | ≥ 20 | ≥ 20 | 17 |
| CCc1ccc(C(C#N)NC(=O)c2cn(CCNC(=O)c3cccc(OC)n3)nn2)cc1 (centres unmarked) [Example 26, 6-Methoxy-pyridine-2-carboxylic acid [2-(4-{[cyano-(4-ethyl-phenyl)-methyl]-carbamoyl}-[1,2,3]triazol-1-yl)-ethyl]-amide] | 5.38 | ≥ 20 | ≥ 20 | ≥ 20 | ≥ 20 |
| CCc1ccc(C(C#N)NC(=O)c2cn(CCNC(=O)c3cccc4c3OCCO4)nn2)cc1 (centres unmarked) [Example 18, 1-{2-[(2,3-Dihydro-benzo[1,4]dioxine-5-carbonyl)-amino]-ethyl}-1H-[1,2,3]triazole-4-carboxylic acid [cyano-(4-ethyl-phenyl)-methyl]-amide] | 0.482 | ≥ 20 | ≥ 20 | – | ≥ 20 |
| COc1ccc(C(=O)NCCn2cc(C(=O)NC(C#N)c3ccc(C4CC4)cc3)nn2)c(OC)c1OC (centres unmarked) [Example 58, 1-[2-(2,3,4-Trimethoxy-benzoylamino)-ethyl]-1H-[1,2,3]triazole-4-carboxylic acid [cyano-(4-cyclopropyl-phenyl)-methyl]-amide] | 0.159 | ≥ 20 | ≥ 20 | ≥ 20 | – |
| CCc1ccc(C(C#N)NC(=O)c2cn(CCNC(=O)c3ccc(OC)c(OC)c3OC)nn2)cc1 (single isomer, unassigned) [Example 51] | 0.604 | – | – | ≥ 20 | – |
| CCc1ccc(C(C#N)NC(=O)c2cn(CCNC(=O)c3ccc(OC)nn3)nn2)cc1 (centres unmarked) [Example 40, 6-Methoxy-pyridazine-3-carboxylic acid [2-(4-{[cyano-(4-ethyl-phenyl)-methyl]-carbamoyl}-[1,2,3]triazol-1-yl)-ethyl]-amide] | 4.06 | ≥ 20 | ≥ 20 | ≥ 20 | – |
| CCc1ccc(C(C#N)NC(=O)c2cn(CCNC(=O)c3ncccc3OC)nn2)cc1 (centres unmarked) [Example 17, 3-Methoxy-pyridine-2-carboxylic acid [2-(4-{[cyano-(4-ethyl-phenyl)-methyl]-carbamoyl}-[1,2,3]triazol-1-yl)-ethyl]-amide] | 9.93 | ≥ 20 | ≥ 20 | – | ≥ 20 |
| COc1ccc(C(=O)NCCn2cc(C(=O)NC(C#N)c3ccc4ccccc4c3)nn2)c(OC)c1OC (centres unmarked) [Example 49, 1-[2-(2,3,4-Trimethoxy-benzoylamino)-ethyl]-1H-[1,2,3]triazole-4-carboxylic acid (cyano-naphthalen-2-yl-methyl)-amide] | 0.338 | 12.5 | ≥ 20 | – | 19 |
| CCc1ccc(C(C#N)NC(=O)c2cn(CCNC(=S)c3ccc(OC)c(OC)c3OC)nn2)cc1 (centres unmarked) [Example 86, 1-[2-(2,3,4-Trimethoxy-thiobenzoylamino)-ethyl]-1H-[1,2,3]triazole-4-carboxylic acid [cyano-(4-ethyl-phenyl)-methyl]-amide] | 0.274 | 16.3 | ≥ 20 | ≥ 20 | – |
| COc1ccc(C(=O)NCCn2cc(C(=O)NC(C#N)c3ccc4sccc4c3)nn2)c(OC)c1OC (centres unmarked) [Example 48, 1-[2-(2,3,4-Trimethoxy-benzoylamino)-ethyl]-1H-[1,2,3]triazole-4-carboxylic acid (benzo[b]thiophen-5-yl-cyano-methyl)-amide] | 0.201 | 16.3 | ≥ 20 | – | ≥ 20 |

Now from value to compound:

| IC50 [1] [µM] | IC50 [2] [µM] | IC50 (β 2c/2i (trypsin-like)) [µM] | IC50 (β 1i (caspase-like)) [µM] | IC50 (β 1c (caspase-like)) [µM] | Compound |
| --- | --- | --- | --- | --- | --- |
| 0.05 | ≥ 20 | ≥ 20 | ≥ 20 | ≥ 20 | N#CC(NC(=O)c1cn(CCNC(=O)c2ccc(C(F)(F)F)cc2F)nn1)c1ccc(C2CC2)cc1 (centres unmarked) [Example 76, 1-[2-(2-Fluoro-4-trifluoromethyl-benzoylamino)-ethyl]-1H-[1,2,3]triazole-4-carboxylic acid [cyano-(4-cyclopropyl-phenyl)-methyl]-amide] |
| 2.93 | ≥ 20 | ≥ 20 | ≥ 20 | ≥ 20 | CCc1ccc(C(C#N)NC(=O)c2cn(CCNC(=O)c3ccc(Cl)cn3)nn2)cc1 (centres unmarked) [Example 44, 5-Chloro-pyridine-2-carboxylic acid [2-(4-{[cyano-(4-ethyl-phenyl)-methyl]-carbamoyl}-[1,2,3]triazol-1-yl)-ethyl]-amide] |
| 0.196 | ≥ 20 | ≥ 20 | – | ≥ 20 | CCc1ccc(C(C#N)NC(=O)c2cn(CCNC(=O)c3ccc(Cl)cc3OC)nn2)cc1 (centres unmarked) [Example 20, 1-[2-(4-Chloro-2-methoxy-benzoylamino)-ethyl]-1H-[1,2,3]triazole-4-carboxylic acid [cyano-(4-ethyl-phenyl)-methyl]-amide] |
| 0.071 | ≥ 20 | ≥ 20 | ≥ 20 | ≥ 20 | CCc1ccc(C(C#N)NC(=O)c2cn(CCNC(=O)c3cc(C(F)(F)F)ccc3F)nn2)cc1 (centres unmarked) [Example 37, 1-[2-(2-Fluoro-5-trifluoromethyl-benzoylamino)-ethyl]-1H-[1,2,3]triazole-4-carboxylic acid [cyano-(4-ethyl-phenyl)-methyl]-amide] |
| 1.39 | 19.9 | ≥ 20 | ≥ 20 | ≥ 20 | Cc1ccc(C(=O)NCCn2cc(C(=O)NC(C#N)c3ccc(C(F)(F)F)cc3)nn2)c(F)c1 (centres unmarked) [Example 75, 1-[2-(2-Fluoro-4-methyl-benzoylamino)-ethyl]-1H-[1,2,3]triazole-4-carboxylic acid [cyano-(4-trifluoromethyl-phenyl)-methyl]-amide] |
| 2.88 | ≥ 20 | ≥ 20 | – | ≥ 20 | CCc1ccc(C(C#N)NC(=O)c2cn(CCNC(=O)c3cc(Cl)cc(C)n3)nn2)cc1 (centres unmarked) [Example 21, 4-Chloro-6-methyl-pyridine-2-carboxylic acid [2-(4-{[cyano-(4-ethyl-phenyl)-methyl]-carbamoyl}-[1,2,3]triazol-1-yl)-ethyl]-amide] |
| 1.12 | ≥ 20 | ≥ 20 | – | ≥ 20 | CCc1ccc(C(C#N)NC(=O)c2cn(CCNC(=O)c3cccc(OC)c3OC)nn2)cc1 (centres unmarked) [Example 16, 1-[2-(2,3-Dimethoxy-benzoylamino)-ethyl]-1H-[1,2,3]triazole-4-carboxylic acid [cyano-(4-ethyl-phenyl)-methyl]-amide] |
| 0.111 | 12 | ≥ 20 | – | ≥ 20 | CCc1ccc(C(C#N)NC(=O)c2cn(CCNC(=O)c3ccc(SC)cc3OC)nn2)cc1 (centres unmarked) [Example 19, 1-[2-(2-Methoxy-4-methylsulfanyl-benzoylamino)-ethyl]-1H-[1,2,3]triazole-4-carboxylic acid [cyano-(4-ethyl-phenyl)-methyl]-amide] |
| 0.517 | ≥ 20 | ≥ 20 | ≥ 20 | – | CCc1ccc(C(C#N)NC(=O)c2cn(CCNC(=O)c3cc(C(F)(F)F)ccc3OC)nn2)cc1 (centres unmarked) [Example 39, 1-[2-(2-Methoxy-5-trifluoromethyl-benzoylamino)-ethyl]-1H-[1,2,3]triazole-4-carboxylic acid [cyano-(4-ethyl-phenyl)-methyl]-amide] |
| 3.79 | ≥ 20 | ≥ 20 | ≥ 20 | – | N#CC(NC(=O)c1cn(CCNC(=O)c2cc(Cl)ccc2Cl)nn1)c1ccc(C(F)(F)F)cc1 (centres unmarked) [Example 69, 1-[2-(2,5-Dichloro-benzoylamino)-ethyl]-1H-[1,2,3]triazole-4-carboxylic acid [cyano-(4-trifluoromethyl-phenyl)-methyl]-amide] |
